From paper PMC10058245 (Science Advances, 2023)
Residue numbers refer to the chain shown, from its start.

Tests used:
[1] = target: T1, VRAC (SWELL1/LRRC8A-containing volume-regulated anion channel) (Homo sapiens, UniProt Q8IWT6); assay: whole-cell patch clamp of hypotonicity-induced VRAC currents; type: cell-based
T1 sequence (Q8IWT6 1-810): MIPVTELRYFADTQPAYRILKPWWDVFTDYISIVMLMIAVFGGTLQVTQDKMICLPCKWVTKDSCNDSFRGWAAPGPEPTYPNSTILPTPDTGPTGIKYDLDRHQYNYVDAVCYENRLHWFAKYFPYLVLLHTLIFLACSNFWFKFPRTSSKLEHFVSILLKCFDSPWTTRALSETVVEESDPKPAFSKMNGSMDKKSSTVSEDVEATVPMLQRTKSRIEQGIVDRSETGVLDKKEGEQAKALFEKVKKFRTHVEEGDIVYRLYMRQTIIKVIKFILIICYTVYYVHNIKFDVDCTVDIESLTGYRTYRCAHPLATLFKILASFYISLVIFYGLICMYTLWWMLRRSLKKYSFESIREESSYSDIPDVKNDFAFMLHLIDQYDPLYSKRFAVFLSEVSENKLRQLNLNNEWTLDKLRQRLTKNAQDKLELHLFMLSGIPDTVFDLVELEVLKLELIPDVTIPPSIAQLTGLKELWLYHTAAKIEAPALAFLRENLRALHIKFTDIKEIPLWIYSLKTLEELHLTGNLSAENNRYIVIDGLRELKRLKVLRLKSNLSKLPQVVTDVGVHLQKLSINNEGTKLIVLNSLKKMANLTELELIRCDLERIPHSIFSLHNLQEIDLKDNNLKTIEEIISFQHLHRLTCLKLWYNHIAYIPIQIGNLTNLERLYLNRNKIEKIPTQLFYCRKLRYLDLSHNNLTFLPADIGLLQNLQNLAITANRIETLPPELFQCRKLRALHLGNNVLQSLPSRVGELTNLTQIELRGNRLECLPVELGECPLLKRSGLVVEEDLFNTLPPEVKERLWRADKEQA

[2] = target: T2, VRAC (Swell1/Lrrc8a-containing volume-regulated anion channel) (Mus musculus, UniProt Q80WG5); assay: whole-cell patch clamp of hypotonicity-induced VRAC currents in BV2 microglia; type: cell-based
T2 sequence (Q80WG5 1-810): T1 sequence (Q8IWT6 1-810) with P75S, G76S, I86V, I276A, A591V, I715V, T722A, N792S

| Compound | IC50 [1] [µM] | IC50 [2] [µM] |
| --- | --- | --- |
| O=c1oc2ccccc2c(O)c1Cc1c(O)c2ccccc2oc1=O [dicumarol] | 3.8 | 4.1 |
| COc1cc(C(=O)NS(=O)(=O)c2ccccc2C)ccc1Cc1cn(C)c2ccc(NC(=O)OC3CCCC3)cc12 [zafirlukast] | 4.9 | – |
